From US9458110B2, “Phenylpyrazole derivatives as potent ROCK1 and ROCK2 inhibitors” (BRISTOL-MYERS SQUIBB COMPANY, priority 2013, dated 2016)

Experiments:
ROCK1 = ROCK1 (Homo sapiens (Human), UniProt Q13464); assay: ROCK assay (Caliper LABCHIP peptide phosphorylation), ROCK1; format: biochemical; conditions: 5 μM ATP, 1.5 μM peptide substrate;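 also: Read-out is separation of phosphorylated from unphosphorylated peptide, with kinase activity inhibition computed at every concentration of a dose-response series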
Sequence of ROCK1 (Q13464 whole entry, species assumed): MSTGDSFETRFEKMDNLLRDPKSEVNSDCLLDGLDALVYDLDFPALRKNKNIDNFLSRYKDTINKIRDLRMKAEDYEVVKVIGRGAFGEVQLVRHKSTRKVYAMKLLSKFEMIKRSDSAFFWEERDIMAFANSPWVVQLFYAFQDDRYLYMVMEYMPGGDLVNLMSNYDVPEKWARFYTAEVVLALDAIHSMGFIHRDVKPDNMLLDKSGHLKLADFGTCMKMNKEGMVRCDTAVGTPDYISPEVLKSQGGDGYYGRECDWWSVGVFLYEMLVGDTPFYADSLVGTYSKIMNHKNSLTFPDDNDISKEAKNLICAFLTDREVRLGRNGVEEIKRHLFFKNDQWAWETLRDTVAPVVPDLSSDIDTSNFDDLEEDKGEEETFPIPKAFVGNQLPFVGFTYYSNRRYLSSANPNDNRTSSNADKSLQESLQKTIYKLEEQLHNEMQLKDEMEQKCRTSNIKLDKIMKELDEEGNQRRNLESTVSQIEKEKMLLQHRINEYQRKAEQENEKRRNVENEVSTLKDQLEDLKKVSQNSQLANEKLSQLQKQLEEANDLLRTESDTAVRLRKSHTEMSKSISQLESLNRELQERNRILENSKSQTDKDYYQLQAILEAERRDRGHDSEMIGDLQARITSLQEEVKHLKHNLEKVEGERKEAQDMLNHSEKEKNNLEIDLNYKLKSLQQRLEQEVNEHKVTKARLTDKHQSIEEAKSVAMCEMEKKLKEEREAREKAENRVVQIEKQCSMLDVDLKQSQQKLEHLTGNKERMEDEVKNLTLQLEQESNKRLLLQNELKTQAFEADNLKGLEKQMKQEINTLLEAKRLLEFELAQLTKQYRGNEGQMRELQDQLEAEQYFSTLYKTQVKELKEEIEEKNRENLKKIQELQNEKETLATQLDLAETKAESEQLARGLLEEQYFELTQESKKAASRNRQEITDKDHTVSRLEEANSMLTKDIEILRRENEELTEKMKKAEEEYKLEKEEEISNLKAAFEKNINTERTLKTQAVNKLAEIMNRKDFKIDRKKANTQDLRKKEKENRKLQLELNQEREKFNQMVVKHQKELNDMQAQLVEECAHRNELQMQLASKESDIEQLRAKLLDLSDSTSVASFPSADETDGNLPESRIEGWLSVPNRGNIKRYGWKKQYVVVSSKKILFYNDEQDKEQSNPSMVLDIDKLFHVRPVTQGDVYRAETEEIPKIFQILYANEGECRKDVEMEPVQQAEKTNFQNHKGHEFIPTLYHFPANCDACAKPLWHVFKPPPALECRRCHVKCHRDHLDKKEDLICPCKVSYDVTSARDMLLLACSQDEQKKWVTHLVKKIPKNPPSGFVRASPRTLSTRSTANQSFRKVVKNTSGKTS

ROCK2 = ROCK2 (Homo sapiens (Human), UniProt O75116); assay: ROCK assay (Caliper LABCHIP peptide phosphorylation), ROCK2; format: biochemical; conditions: 5 μM ATP, 1.5 μM peptide substrate;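 also: reaction stopped with EDTA, then phosphorylated and unphosphorylated peptide resolved by microfluidic electrophoresis, kinase inhibition computed at each compound concentration in dose-response series, DMSO under 2%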
Sequence of ROCK2 (O75116 whole entry, species assumed): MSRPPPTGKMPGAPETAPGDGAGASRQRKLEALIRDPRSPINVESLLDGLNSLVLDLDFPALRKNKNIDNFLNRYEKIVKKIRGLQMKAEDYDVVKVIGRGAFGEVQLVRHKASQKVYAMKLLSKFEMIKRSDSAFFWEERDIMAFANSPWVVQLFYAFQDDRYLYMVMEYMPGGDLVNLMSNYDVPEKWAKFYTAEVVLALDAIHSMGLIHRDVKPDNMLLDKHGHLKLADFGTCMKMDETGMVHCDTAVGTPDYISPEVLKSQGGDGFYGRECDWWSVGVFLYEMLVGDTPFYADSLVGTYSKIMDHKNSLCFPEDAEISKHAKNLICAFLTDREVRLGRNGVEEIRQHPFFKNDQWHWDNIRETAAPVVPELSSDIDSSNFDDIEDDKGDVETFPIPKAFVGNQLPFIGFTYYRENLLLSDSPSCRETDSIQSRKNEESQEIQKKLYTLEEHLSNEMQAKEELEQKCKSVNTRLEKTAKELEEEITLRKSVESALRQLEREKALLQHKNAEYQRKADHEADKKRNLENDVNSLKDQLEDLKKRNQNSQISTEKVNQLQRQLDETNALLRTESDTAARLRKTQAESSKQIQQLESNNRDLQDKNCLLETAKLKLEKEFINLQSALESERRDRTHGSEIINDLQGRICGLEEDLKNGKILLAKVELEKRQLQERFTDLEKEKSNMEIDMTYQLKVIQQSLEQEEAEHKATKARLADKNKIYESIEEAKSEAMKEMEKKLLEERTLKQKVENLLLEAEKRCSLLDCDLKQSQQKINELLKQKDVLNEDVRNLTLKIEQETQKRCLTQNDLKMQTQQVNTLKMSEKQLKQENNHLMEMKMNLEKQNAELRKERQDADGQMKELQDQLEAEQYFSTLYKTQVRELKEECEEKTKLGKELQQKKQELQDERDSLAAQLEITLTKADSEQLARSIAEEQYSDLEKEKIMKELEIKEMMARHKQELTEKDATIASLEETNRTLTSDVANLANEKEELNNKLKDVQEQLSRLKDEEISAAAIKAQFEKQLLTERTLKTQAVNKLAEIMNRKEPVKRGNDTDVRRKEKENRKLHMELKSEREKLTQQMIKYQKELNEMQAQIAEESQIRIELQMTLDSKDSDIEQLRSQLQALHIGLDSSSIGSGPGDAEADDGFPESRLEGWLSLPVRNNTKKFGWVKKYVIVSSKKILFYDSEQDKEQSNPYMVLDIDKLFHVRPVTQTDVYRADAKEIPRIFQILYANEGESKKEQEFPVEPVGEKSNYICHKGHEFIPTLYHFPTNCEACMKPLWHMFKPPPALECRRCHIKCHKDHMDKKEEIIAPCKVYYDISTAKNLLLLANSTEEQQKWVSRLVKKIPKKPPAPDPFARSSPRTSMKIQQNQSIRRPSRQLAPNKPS

| Compound | IC50 (ROCK1) [µM] | IC50 (ROCK2) [µM] |
| --- | --- | --- |
| COC[C@H](NC(=O)c1ccc(-c2cn[nH]c2)c(OC)c1)[C@@H](O)c1ccccc1 [Example 113, N-[(1S,2S)-1-hydroxy-3-methoxy-1-phenylpropan-2-yl]-3-methoxy-4-(1H-pyrazol-4-yl)benzamide] | 0.602 | 0.33 |
| COc1cc(CNC(=O)c2ccc(-c3cn[nH]c3)c(OC)c2)ccc1F [Example 96, N-[(4-fluoro-3-methoxyphenyl)methyl]-3-methoxy-4-(1H-pyrazol-4-yl)benzamide] | 0.026 | 0.00241 |
| COc1cc(C(=O)NC(C)c2ccccc2)ccc1-c1cn[nH]c1 (stereo not drawn) [Example 20, 3-methoxy-N-(1-phenylethyl)-4-(1H-pyrazol-4-yl)benzamide] | 0.0105 | 0.00224 |
| N-(3- chlorobenzyl)- 3-methoxy-4- (1H-pyrazol-4- yl)benzamide [Example 34] | 0.124 | 0.0497 |
| COc1cc(C(=O)NCc2ccccc2)ccc1-c1cn[nH]c1 [Example 27, N-benzyl-3-methoxy-4-(1H-pyrazol-4-yl) benzamide] | 0.0128 | 0.0026 |
| COc1cc(C(=O)N[C@H](C)[C@@H](O)c2ccccc2)ccc1-c1cn[nH]c1 [Example 42, N-((1S,2R)-1-hydroxy-1-phenylpropan-2-yl)-3-methoxy-4-(1H-pyrazol-4-yl)benzamide] | 0.0263 | 0.011 |
| Cc1cc(C(=O)N[C@H](CN)c2ccccc2)ccc1-c1cn[nH]c1 [Example 256, N-[(15)-2-amino-1-phenylethyl]-3-methyl-4-(1H-pyrazol-4-yl)benzamide] | 0.00338 | 0.00072 |
| COc1cc(C(=O)NCc2cccc(C(=O)NC3(C)CC3)c2)ccc1-c1cn[nH]c1 [Example 83, 3-methoxy-N-(3-((1-methylcyclopropyl)carbamoyl)benzyl)-4-(1H-pyrazol-4-yl)benzamide] | 0.00316 | 0.00114 |
| COc1cc(C(=O)NCc2cc(Cl)ccc2Cl)ccc1-c1cn[nH]c1 [Example 76, N-(2,5-dichlorobenzyl)-3-methoxy-4-(1H-pyrazol-4-yl)benzamide] | 0.00772 | 0.0022 |
| COc1cc(C(=O)NCc2cccc(F)c2)ccc1-c1cn[nH]c1 [Example 17, N-(3-fluorobenzyl)-3-methoxy-4-(1H-pyrazol-4-yl)benzamide] | 0.00842 | 0.00401 |
| COc1cc(C(=O)NCc2ccc(Oc3ccccc3)cc2Cl)ccc1-c1cn[nH]c1 [Example 48, N-(2-chloro-4-phenoxybenzyl)-3-methoxy-4-(1H-pyrazol-4-yl)benzamide] | 0.663 | 1.32 |
| COc1cc(C(=O)NCc2ccc(Cl)cc2SCC(C)C)ccc1-c1cn[nH]c1 [Example 47, N-(4-chloro-2-(isobutylthio)benzyl)-3-methoxy-4-(1H-pyrazol-4-yl)benzamide] | > 2 | 1.32 |
| COc1cc(C(=O)NC(CCO)c2ccccc2)ccc1-c1cn[nH]c1 (stereo not drawn) [Example 90, N-(3-hydroxy-1-phenylpropyl)-3-methoxy-4-(1H-pyrazol-4-yl)benzamide] | 0.0124 | 0.0064 |
| COc1ccc(F)c(CNC(=O)c2ccc(-c3cn[nH]c3)c(OC)c2)c1 [Example 49, N-(2-fluoro-5-methoxybenzyl)-3-methoxy-4-(1H-pyrazol-4-yl)benzamide] | 0.0143 | 0.00247 |
| COc1cc(C(=O)NC(CN2CCCC2)c2ccccc2)ccc1-c1cn[nH]c1 (stereo not drawn) [Example 14, 3-methoxy-N-(1-phenyl-2-(pyrrolidin-1-yl)ethyl)-4-(1H-pyrazol-4-yl)benzamide] | 0.243 | 0.0864 |
| COc1cc(C(=O)NCc2cc(F)ccc2Cl)ccc1-c1cn[nH]c1 [Example 82, N-(2-chloro-5-fluorobenzyl)-3-methoxy-4-(1H-pyrazol-4-yl)benzamide] | 0.00989 | 0.00439 |
| COc1cc(C(=O)N[C@H](C)c2ccccc2Cl)ccc1-c1cn[nH]c1 [Example 43, (R)-N-(1-(2-chlorophenyl)ethyl)-3-methoxy-4-(1H-pyrazol-4-yl) benzamide] | 0.0408 | 0.00131 |
| COc1cc(C(=O)NCCc2ccccc2Cl)ccc1-c1cn[nH]c1 [Example 35, N-(2-chloro-phenethyl)-3-methoxy-4-(1H-pyrazol-4-yl)benzamide] | 0.0165 | 0.0066 |
| COc1cc(C(=O)NCc2cccc(NS(C)(=O)=O)c2)ccc1-c1cn[nH]c1 [Example 94, N-[(3-methanesulfon-amidophenyl)methyl]-3-methoxy-4-(1H-pyrazol-4-yl)benzamide] | 0.0246 | 0.00633 |

Other lines, results leading:

| IC50 (ROCK1) [µM] | IC50 (ROCK2) [µM] | Compound |
| --- | --- | --- |
| 0.0046 | 0.00253 | COc1cc(-c2cn[nH]c2)ccc1C(=O)NC(CN)Cc1ccccc1 (stereo not drawn) [Example 233, N-(1-amino-3-phenylpropan-2-yl)-2-methoxy-4-(1H-pyrazol-4-yl)benzamide] |
| 0.0234 | 0.0321 | COc1cc(C(=O)NC[C@@H](O)c2cccc(Cl)c2)ccc1-c1cn[nH]c1 [Example 127, N-[(2S)-2-(3-chlorophenyl)-2-hydroxyethyl]-3-methoxy-4-(1H-pyrazol-4-yl)benzamide] |
| 0.0131 | 0.0189 | Cc1cc(C(=O)N[C@H](C)c2ccc(F)cc2)ccc1-c1cn[nH]c1 [Example 150, N-[(1R)-1-(4-fluorophenyl)ethyl]-3-methyl-4-(1H-pyrazol-4-yl)benzamide] |
| 0.099 | 0.255 | Cc1cc(C(=O)N[C@H](CC(=O)NCC(C)(C)O)c2ccccc2)ccc1-c1cn[nH]c1 [Example 253, (3R)-N-(2-Hydroxy-2-methylpropyl)-3-{[3-methyl-4-(1H-pyrazol-4-yl)phenyl]formamido}-3-phenylpropanamide] |
| 1.14 | 1.51 | CC(O)c1cc(C(=O)N[C@H](C)c2c(F)cccc2F)ccc1-c1cn[nH]c1 (stereo partly drawn) [Example 292, N-[(1R)-1-(2,6-difluorophenyl)ethyl]-3-(1-hydroxyethyl)-4-(1H-pyrazol-4-yl)benzamide] |
| 0.156 | 0.0442 | COC[C@@H](NC(=O)c1ccc(-c2cn[nH]c2)c(C(C)O)c1)c1ccccc1 (stereo partly drawn) [Example 277, 3-(1-hydroxyethyl)-N-[(1S)-2-methoxy-1-phenylethyl]-4-(1H-pyrazol-4-yl)benzamide] |
| 0.00653 | 0.00082 | COC(=O)c1cc(CNC(=O)c2ccc(-c3cn[nH]c3)c(OC)c2)ccc1F [Example 134, methyl 2-fluoro-5-({[3-methoxy-4-(1H-pyrazol-4-yl)phenyl] formamido}methyl)benzoate] |
| 0.301 | 0.282 | COc1cc(C(=O)NC(CCO)c2ccccc2)ccc1-c1cn[nH]c1 (stereo not drawn) [Example 145, N-(3-hydroxy-1-phenylpropyl)-3-methoxy-4-(1H-pyrazol-4-yl)benzamide] |
| 0.0724 | 0.0272 | COc1cc(C(=O)NC(C)c2ccccc2OC)ccc1-c1cn[nH]c1 (stereo in doubt) [Example 173, 3-methoxy-N-[(1R)-1-(2-methoxyphenyl)ethyl]-4-(1H-pyrazol-4-yl)benzamide] |
| 0.00244 | 0.00032 | COc1cc(C(=O)NCc2cccc(C(=O)NC3CC3)c2)ccc1-c1cn[nH]c1 [Example 238, N-{[3-(cyclopropyl-carbamoyl)phenyl]methyl}-3-methoxy-4-(1H-pyrazol-4-yl)benzamide] |
| 0.0505 | 0.0302 | COc1cc(C(=O)NC[C@H](C)c2ccccc2)ccc1-c1cn[nH]c1 [Example 117, 3-methoxy-N-[(2R)-2-phenylpropyl]-4-(1H-pyrazol-4-yl)benzamide] |
| 0.362 | 0.0115 | COc1cc(-c2cn[nH]c2)ccc1C(=O)N[C@H](CO)c1c(F)cccc1F [Example 201, N-[(1S)-1-(2,6-difluorophenyl)-2-hydroxyethyl]-2-methoxy-4-(1H-pyrazol-4-yl)benzamide] |
| 0.007 | 0.00277 | COc1cc(-c2cn[nH]c2)ccc1C(=O)N[C@H](C)c1ccc(F)cc1 [Example 206, N-[(1R)-1-(4-fluorophenyl)ethyl]-2-methoxy-4-(1H-pyrazol-4-yl) benzamide] |
| 0.00739 | 0.00676 | COc1cc(C(=O)NC(C)c2cccc(O)n2)ccc1-c1cn[nH]c1 (stereo not drawn) [Example 159, N-[1-(6-hydroxypyridin-2-yl)ethyl]-3-methoxy-4-(1H-pyrazol-4-yl)benzamide] |
| 0.0225 | 0.00749 | C[C@@H](NC(=O)c1ccc(-c2cn[nH]c2)c(OC(F)F)c1)c1ccc(F)cc1 [Example 164, 3-(difluoro-methoxy)-N-[(1R)-1-(4-fluorophenyl)ethyl]-4-(1H-pyrazol-4-yl)benzamide] |
| 0.00425 | 0.00439 | COc1cc(-c2cn[nH]c2)ccc1C(=O)NCc1c(F)cccc1F [Example 207, N-[(2,6-difluorophenyl)methyl]-2-methoxy-4-(1H-pyrazol-4-yl)benzamide] |
| 0.138 | 0.104 | CC(O)c1cc(C(=O)NCc2c(F)cccc2Cl)ccc1-c1cn[nH]c1 (stereo not drawn) [Example 291, N-[(2-chloro-6-fluorophenyl)methyl]-3-(1-hydroxyethyl)-4-(1H-pyrazol-4-yl)benzamide] |
| 0.582 | 0.361 | CC(NC(=O)c1ccc(-c2cn[nH]c2)c(C(F)F)c1)c1ccccc1F (single isomer, unassigned) [Example 301, 3-(Difluoromethyl)-N-(1-(2-fluorophenyl)ethyl)-4-(1H-pyrazol-4-yl)benzamide] |
| 0.0374 | 0.014 | COc1cc(C(=O)N[C@@H](Cc2ccccc2)C(N)=O)ccc1-c1cn[nH]c1 [Example 115, (2S)-2-{[3-methoxy-4-(1H-pyrazol-4-yl)phenyl] formamido}-3-phenyl-propanamide] |
| 0.0235 | 0.00509 | COc1ccc(F)c(C(C)NC(=O)c2ccc(-c3c[nH]nc3C)cc2OC)c1 (stereo not drawn) [Example 147, N-[1-(2-fluoro-5-methoxyphenyl)ethyl]-2-methoxy-4-(3-methyl-1H-pyrazol-4-yl)benzamide] |
